Measurements from patent US4540697A, “Aminopropanol derivatives of 2-hydroxy-β-phenyl-propiophenones, pharmaceutical compositions and use” (priority 1984, dated 1985).
≈ marks a conversion by molar mass, not a printed value. Structures can show the parent of a compound that is named as a salt.

Experiments:
[1] = test system: aconitine arrhythmia in rats; assay: Antiarrhythmic action on aconitine arrhythmia in rats; format: in vivo, rat (strain: Sprague Dawley); conditions: Rattus norvegicus, po, 1 h, peroral administration, aconitine infused 60 minutes after substance, read-out: ED 50%: dose which causes a 50% extension in the period of aconitine infusion
Procedure: Moreover, the novel compounds were administered orally or intravenously to male rats (strain: Sprague Dawley, weight: 200-230 g) to determine the antiarrhythmic activity. 45 minutes later, the animals were anesthetized by intraperitoneal administration of 100 mg/kg of thiobutabarbital sodium. Aconitine served as the arrhythmogenic substance, and was infused intravenously at a dosage rate of 0.005 mg/kg/minute 60 minutes after administration of the substance. In untreated animals (n=52), arrhythmias appeared in the ECG after 2.74±0.07 minutes. These arrhythmias can be delayed by antiarrhythmic drugs, as a function of the dose.
The dose which extends the infusion period by 50% (ED 50%) was determined from the linear relationship between the logarithm of the dose (mg/kg) of the trial substance and the relative extension of the period of aconitine infusion (Δ%).
(§1) The known antiarrhythmic drug propafenone [2-(2-hydroxy-3-propylamino-propoxy)-3-phenyl-propiophenone hydrochloride]was used as the comparative substance.

[2] = test system: isolated left atrium of male guineapigs; assay: Antiarrhythmic action on the isolated guineapig atrium (drop in maximum rhythmicity); design: species or system guineapig (strain: Pirbright white); conditions: Cavia porcellus, Tyrode's solution pH 7.4, 32° C., read-out: Maximum rhythmicity (ED 50%): concentration which causes a 50% drop in the maximum rhythmicity
Procedure: The antiarrhythmic activity of the compounds according to the invention was determined on the isolated left atrium of male guineapigs (strain: Pirbright white, weight: 350 to 450 g).
Atria suspended in an organ bath (volume: 125 ml) with carbogen-saturated Tyrode's solution (pH 7.4, 32° C.) were pre-loaded with 1.0 g and subjected to square-wave pulses having a base rhythm of 1 Hz and twice the excitation threshold (rheobase: 0.2-1.4 V, chronaxia: 0.3-0.5 msec).
The frequency (Hz) up to which contraction follows each stimulus (maximum rhythmicity, MR) was determined, by automatically and continuously increasing the frequency, as a criterion of the antiarrhythmic activity. The concentration which causes a drop in the maximum rhythmicity of 50% (EC 50%) was calculated from the linear relationship between the logarithm of the concentration (mg/l) and the relative drop in the maximum rhythmicity (%).
as §1

SMILES: O=C(CCc1ccccc1)c1ccccc1OCC(O)CN1CCC(O)CC1 (stereo not drawn) [Example 23, 2-[2'-Hydroxy-3'-(4-hydroxypiperidino)-propoxy]-β-phenyl-propiophenone hydrochloride]
- ED50 [1]: 31.6 mg/kg
- EC50 [2]: 1.64 µg/mL

SMILES: O=C(CCc1ccccc1)c1ccccc1OCC(O)CN1CCC(O)(c2ccccc2)CC1 (stereo not drawn) [Example 24, 2-[2'-Hydroxy-3'-(4-hydroxy-4-phenyl-piperidino)-propoxy]-β-phenyl-propiophenone hydrochloride]
- ED50 [1]: 25.4 mg/kg
- EC50 [2]: 2.65 µg/mL

SMILES: CN1CCN(CC(O)COc2ccccc2C(=O)CCc2ccccc2)CC1 (stereo not drawn) [Example 25, 2-[2'-Hydroxy-3'-(4-methyl-piperazin-1-yl)-propoxy]-β-phenyl-propiophenone bis-hydrochloride]
- ED50 [1]: 11.2 mg/kg
- EC50 [2]: 1.01 µg/mL

SMILES: CCCNCC(O)COc1ccccc1C(=O)CCc1ccc(F)cc1 (stereo not drawn) [Example 33, 2-(2'-Hydroxy-3'-n-propylamino-propoxy)-β-(4-fluorophenyl)-propiophenone hydrochloride]
- ED50 [1]: 24.5 mg/kg
- EC50 [2]: 2.05 µg/mL

SMILES: CCCNCC(O)COc1ccccc1C(=O)CCc1ccc(C)cc1 (stereo not drawn) [Example 34, 2-(2'-Hydroxy-3'-n-propylamino-propoxy)-β-(4-methylphenyl)-propiophenone hydrochloride]
- ED50 [1]: 21.5 mg/kg
- EC50 [2]: 1.72 µg/mL

SMILES: CCCNCC(O)COc1ccccc1C(=O)CCc1ccc(N(C)C)cc1 (stereo not drawn) [Example 35, 2-(2'-Hydroxy-3'-n-propylamino-propoxy)-β-(4-dimethylaminophenyl)-propiophenone hydrochloride]
- ED50 [1]: 1.99 mg/kg
- EC50 [2]: 1.65 µg/mL

SMILES: CCCNCC(O)COc1ccccc1C(=O)CCc1cc(OC)c(OC)c(OC)c1 (stereo not drawn) [Example 49, 2-(2'-Hydroxy-3'-n-propylaminopropoxy)-β-(3,4,5-trimethoxyphenyl)-propiophenone]
- ED50 [1]: 31.6 mg/kg
- EC50 [2]: 1.82 µg/mL (≈ 4.22 µM)

SMILES: CN(C)c1ccc(CCC(=O)c2ccccc2OCC(O)CN2CCCCC2)cc1 (stereo not drawn) [Example 55, 2-(2'-Hydroxy-3'-piperidino-propoxy)-β-(4-dimethylaminophenyl)-propiophenone]
- ED50 [1]: 5.7 mg/kg
- EC50 [2]: 0.854 µg/mL (≈ 2.08 µM)

SMILES: CN(C)c1ccc(CCC(=O)c2ccccc2OCC(O)CNC2CC2)cc1 (stereo not drawn) [Example 57, 2-(2'-Hydroxy-3'-cyclopropylamino-propoxy)-β-(4-dimethylaminophenyl)-propiophenone hydrochloride]
- ED50 [1]: 1.78 mg/kg
- EC50 [2]: 2.04 µg/mL

SMILES: CCCCNCC(O)COc1ccccc1C(=O)CCc1ccc(N(C)C)cc1 (stereo not drawn) [Example 58, 2-(2'-Hydroxy-3'-n-butylamino-propoxy)-β-(4-dimethylaminophenyl)-propiophenone hydrochloride]
- ED50 [1]: 2.33 mg/kg
- EC50 [2]: 1.92 µg/mL

SMILES: COCC(C)NCC(O)COc1ccccc1C(=O)CCc1ccc(N(C)C)cc1 (stereo not drawn) [Example 60, 2-[2'-Hydroxy-3'-(3-methoxy-prop-2-ylamino)-propoxy]-β-(4-dimethylaminophenyl)-propiophenone hydrochloride]
- ED50 [1]: 3.25 mg/kg
- EC50 [2]: 1.82 µg/mL

SMILES: CN1CCN(CC(O)COc2ccccc2C(=O)CCc2ccc(N(C)C)cc2)CC1 (stereo not drawn) [Example 67, 2-[2'-Hydroxy-3'-(4-methyl-piperazin-1-yl)-propoxy]-β-(4-dimethylaminophenyl)-propiophenone hydrochloride]
- ED50 [1]: 2.15 mg/kg
- EC50 [2]: 0.658 µg/mL
